US10793567B2, “Bicyclic inhibitors of histone deacetylase” (Rodin Therapeutics, Inc., priority 2017, dated 2020)
Values joined by “and” are separate entries in the source; they are usually repeats but may differ in a detail not shown here. Identical values can stand only once. Like-named read-outs stand apart in the source and are kept apart here.

Assays:
[1] = test system: human myeloid progenitors (CFU-GM); test: Myeloid CFU assay (colony forming cell assay, bone marrow); type: cell-based; settings: 14 days in culture
Method: Compounds were tested to evaluate the potential effects on human erythroid and myeloid progenitors using colony forming cell assays. Clonogenic progenitors of human erythroid (CFU-E, BFU-E), granulocyte-monocyte (CFU-GM) and multipotential (CFU-GEMM) lineages were assessed in a semi-solid methylcellulose-based media formulation containing rhlL-3 (10 ng/mL), rhGM-SCF (10 ng/mL), rhSCF (50 ng/mL) and Epo (3 U/mL).
Normal human bone marrow light density cells derived from normal bone marrow (NorCal Biologics, California), were stored in the gaseous phase of liquid nitrogen (−152° C.) until required for the assay. On the day of the experiment, the cells were thawed rapidly, the contents of each vial was diluted in 10 mL of Iscove's modified Dulbecco's medium containing 10% fetal bovine serum (IMDM+10% FBS) and washed by centrifugation (approximately 1200 r.p.m. for 10 minutes, room temperature). The supernatant was discarded and the cell pellets resuspended in a known volume of IMDM+10% FBS. A cell count (3% glacial acetic acid) and viability assessment (trypan blue exclusion test) was performed for the bone marrow sample.
On the day of the experiment, the compounds were dissolved in DMSO to a stock concentration of 10 mM. Serial dilutions were prepared from the stock concentration to achieve concentrations of 2 and 0.4 mM. When added to the methylcellulose-based media at 1:1000 (v/v), the final test concentrations of 10, 2 and 0.4 μM were achieved. Additionally, 5-FU was evaluated at 1.0, 0.1 and 0.01 μg/mL.
Clonogenic progenitors of the human erythroid (CFU-E and BFU-E) and myeloid (CFU-GM) lineages were set up in the methylcellulose-based media formulations described above. All compounds were added to the medium to give the final desired concentrations (10, 2 and 0.4 μM). 5-Fluorouracil (Sigma Aldrich) was used as a positive control for progenitor proliferation (inhibition of colony growth) and was introduced to the human bone marrow cultures at 1.0, 0.1, and 0.01 μg/mL. Solvent control cultures (containing no compound but 0.1% DMSO) as well as standard controls (containing no compound and no DMSO) were also initiated.
Human myeloid and erythroid progenitor assays were initiated at 2.0×10^4 cells per culture. Following 14 days in culture, myeloid and erythroid colonies were assessed microscopically and scored by trained personnel. The colonies were divided into the following categories based on size and morphology: CFU-E, BFU-E, CFU-GM and CFU-GEMM.
The mean±one standard deviation of three replicate cultures was calculated for progenitors of each category (CFU-E, BFU-E, etc.). Two-tailed t-tests were performed to assess if there was a difference in the number of colonies generated between solvent control and treated cultures. Due to the potential subjectivity of colony enumeration, a p value of less than 0.01 is deemed significant. To calculate the concentration of 50% inhibition of colony growth (IC50) for each compound, a dose response curve was generated plotting the log of the compound concentration versus the percentage of control colony growth using XLfit software (IDBS). The concentration of 50% inhibition of colony growth (IC50) was calculated based on the sigmoid curve fit using Dose-Response, One-Site Model formula: y=A+[(B−A)/(1+((C/x)^D))], where A=the initial value (baseline response), B=maximum response, C=center (drug concentration that provokes a response halfway between A and B) and D=slope of the curve at midpoint. Further, plots and additional dose response curves were generated using GraphPad Prism 7.0.
Erythroid (CFU-E and BFU-E), myeloid (CFU-GM) and multi-potential (CFU-GEMM) colony enumeration was performed by trained personnel. The distribution of colony types as well as general colony and cellular morphology was analyzed. For statistical analysis colony numbers in compound treated cultures were compared to the solvent control cultures. […]

HDAC2 = HDAC2 (Homo sapiens (Human), UniProt Q92769); test: HDAC2 enzymatic inhibition assay in SY5Y cell lysate (HDAC-Glo 2); type: cell-based; settings: SH-SY5Y cells, five hours incubation
Method: SH-SY5Y cells (Sigma) were cultured in Eagle's Modified Essential Medium supplemented with 10% fetal bovine serum and pen/strep. Twenty-four hours prior to compound dosing 20 uL of cells were plated in white 384 well plates at a density of 1,500 cells/well. Compounds were serially diluted in neat DMSO and then diluted 1:100 v/v into media without FBS and mixed. Media was removed from the plated cells and the diluted compounds in serum free media (1% v/v final DMSO) were added and incubated at 37.0 for five hours. Ten uL of HDAC-Glo 2 reagent with 0.1% Triton X-100 was then added, the plate was mixed and allowed to develop at room temperature for 100 minutes. Plates were then read with a Spectramax LMax luminometer employing a 0.4 s integration time. Dose response curves were constructed with normalized data where CI-994 at 100 uM was defined as 100% inhibition and DMSO alone as 0% inhibition.

[2] = Brain and plasma exposure following IV and PO administration to mice; type: in vivo; settings: for brain Cmax exposure, fold higher than comparator 1 / projected free brain concentration, fold higher than comparator 1: comparator 1 data scaled for comparison; for Projected free brain @ 10 mpk / Brain Cmax @ 10 mpk: 10 mg/kg PO; for half-life / clearance: mouse, plasma; for clearance: read-out: IV PK Cl (converted)
Method: Compounds were dosed in mice at either 10 mg/kg or 30 mg/kg PO, and were dosed at 1 mg/kg IV. Three animals for collection at each time point for plasma via bleeding at 0.25, 0.5, 1, 4, 12 and 24 h. Terminal bleeding for plasma and sampling for brain at 0.25, 0.5, 1, 4, 12 and 24 h (also three animals per brain exposure time point group). Total of six time points for plasma and six time points for brain.
Plasma: The animal was restrained manually at the designated time points, approximately 150 μL blood/time point was collected into K2EDTA tube via retro orbital puncture or cardiac puncture under anesthesia with Isoflurane. The blood sample was centrifuged (2000 g, 4° C., 5 min) to generate plasma within 30 min after bleeding.
Brain: At the designated time points, a mid-line incision was made in the animals scalp and the skin was retracted. Using small bone cutters and rongeurs, removed the skull overlying the brain. Removed the brain using a spatula and rinse with cold saline. Placed the brain in screw-top tubes, and then stored the tubes under −70° C. until analysis.

[3] = iv, 1 mg/kg, mice, 1 mg/kg IV, read-out: IV PK T1/2 (converted)
[4] = po, 10 mg/kg, mice, PO, read-out: PO T1/2 (converted)

HDAC2, sequence (Q92769 whole entry): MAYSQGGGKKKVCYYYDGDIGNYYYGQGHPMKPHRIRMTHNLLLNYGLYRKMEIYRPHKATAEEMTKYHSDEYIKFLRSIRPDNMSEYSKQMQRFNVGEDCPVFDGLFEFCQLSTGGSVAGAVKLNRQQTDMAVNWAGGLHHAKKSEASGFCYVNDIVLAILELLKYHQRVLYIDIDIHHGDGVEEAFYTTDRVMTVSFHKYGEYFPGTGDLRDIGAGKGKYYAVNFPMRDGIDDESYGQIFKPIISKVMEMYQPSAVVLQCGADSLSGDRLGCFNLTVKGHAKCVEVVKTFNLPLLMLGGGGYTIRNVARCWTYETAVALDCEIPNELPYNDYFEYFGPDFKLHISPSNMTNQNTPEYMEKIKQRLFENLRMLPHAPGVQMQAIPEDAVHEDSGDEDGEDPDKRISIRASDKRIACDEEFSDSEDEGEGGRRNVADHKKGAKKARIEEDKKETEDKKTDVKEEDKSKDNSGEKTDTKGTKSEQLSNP

With CCc1ncc2c(n1)CN(C(=O)Nc1nc(-c3ccc(F)cc3)ccc1N)C2 [Compound 17] the “Myeloid % control @ 10 uM dose” value [1] was 79.1%, the IC50 (HDAC2) was 1000 to 1500 nM and the “brain Cmax exposure, fold higher than comparator 1” value [2] was roughly 7 fold. For the same compound, the “projected free brain concentration, fold higher than comparator 1” value [2] was 5 fold, the “Projected free brain @ 10 mpk” value ([2]; mice) was 0.568 µM and the “Brain Cmax @ 10 mpk” value ([2]; mice) was 1241 ng/g. For the same compound, the half-life [2, 3] was 2.07 h, the half-life [2, 4] was 2.54 h and the clearance ([2]; mice, 1 mg/kg IV) was 24.8 mL/min/kg.

With CCc1ncc2c(n1)CN(C(=O)Nc1nc(-c3cccs3)ccc1N)C2 [Compound 3] the “Myeloid % control @ 10 uM dose” value [1] was 89.4%, the IC50 (HDAC2) was 100 to 1000 nM and the “Projected free brain @ 10 mpk” value ([2]; mice) was 0.387 µM. The “Brain Cmax @ 10 mpk” value ([2]; mice) was 526 ng/g, the half-life [2, 3] was 0.737 h and the half-life [2, 4] was 1.48 h. It also gave a clearance ([2]; mice, 1 mg/kg IV) of 25 mL/min/kg.

In the case of Nc1ccc(-c2ccc(F)cc2)nc1NC(=O)N1Cc2cn(C3COC3)nc2C1 [Compound 1], the “Myeloid % control @ 10 uM dose” value [1] is reported as 54%, the IC50 (HDAC2) is reported as 100 to 1000 nM and the “Projected free brain @ 10 mpk” value ([2]; mice) is reported as 0.324 µM. The “Brain Cmax @ 10 mpk” value ([2]; mice) was 636 ng/g, the half-life [2, 3] was 3.11 h and the half-life [2, 4] was 2.05 h. For the same compound, the clearance ([2]; mice, 1 mg/kg IV) was 7.02 mL/min/kg.

With COCCn1cc2c(n1)CN(C(=O)Nc1nc(-c3ccc(F)cc3F)ccc1N)C2 [Compound 9] the “Myeloid % control @ 10 uM dose” value [1] was 62.8%, the IC50 (HDAC2) was 100 to 1000 nM and the “Projected free brain @ 10 mpk” value ([2]; mice) was 0.881 µM and 0.795 µM. The “Brain Cmax @ 10 mpk” value ([2]; mice) was 1533 ng/g and 1383 ng/g, the “PO T1/2” value ([2]; mice, PO) was 1.01 h and the half-life [2, 3] was 0.644 h. The half-life [2, 4] was 1.39 h and the clearance ([2]; mice, 1 mg/kg IV) was 27.8 mL/min/kg.

In the case of CCc1cc2c(cn1)CN(C(=O)Nc1nc(-c3cccnc3)ccc1N)C2 [Compound 8], the “Myeloid % control @ 10 uM dose” value [1] is reported as 102%, the IC50 (HDAC2) is reported as 100 to 1000 nM and the “Projected free brain @ 10 mpk” value ([2]; mice) is reported as 0.222 µM. For the same compound, the “Brain Cmax @ 10 mpk” value ([2]; mice) was 279 ng/g, the half-life [2, 3] was 0.628 h and the half-life [2, 4] was 1.27 h. It also gave a clearance ([2]; mice, 1 mg/kg IV) of 35.2 mL/min/kg.

In the case of Cc1ncc(-c2ccc(N)c(NC(=O)N3Cc4cn(CC(F)F)nc4C3)n2)s1 [Compound 5], the IC50 (HDAC2) is reported as 100 to 1000 nM, the “Projected free brain @ 10 mpk” value ([2]; mice) is reported as 0.302 µM and the “Brain Cmax @ 10 mpk” value ([2]; mice) is reported as 277 ng/g. For the same compound, the half-life [2, 3] was 2.81 h, the half-life [2, 4] was 2.33 h and the clearance ([2]; mice, 1 mg/kg IV) was 5.9 mL/min/kg.

For Cc1ncc2c(n1)CN(C(=O)Nc1nc(-c3ccc(F)cc3)ccc1N)C2 [Compound 14], the “Myeloid % control @ 10 uM dose” value [1] was 112%, the IC50 (HDAC2) was 100 to 1000 nM and the “brain Cmax exposure, fold higher than comparator 1” value [2] was 4 fold. For the same compound, the “projected free brain concentration, fold higher than comparator 1” value [2] was 4 fold, the “Projected free brain @ 10 mpk” value ([2]; mice) was 0.403 µM and the “Brain Cmax @ 10 mpk” value ([2]; mice) was 633 ng/g. It also gave a half-life [2, 3] of 2.09 h, a half-life [2, 4] of 3.22 h and a clearance ([2]; mice, 1 mg/kg IV) of 14.3 mL/min/kg.

In the case of Cc1cc2c(cn1)CN(C(=O)Nc1nc(-c3cccnc3)ccc1N)C2 [Compound 12], the “Myeloid % control @ 10 uM dose” value [1] is reported as 104%, the IC50 (HDAC2) is reported as 100 to 1000 nM and the “Projected free brain @ 10 mpk” value ([2]; mice) is reported as 0.386 µM. For the same compound, the “Brain Cmax @ 10 mpk” value ([2]; mice) was 237 ng/g, the half-life [2, 3] was 0.513 h and the half-life [2, 4] was 3.67 h. For the same compound, the clearance ([2]; mice, 1 mg/kg IV) was 29.5 mL/min/kg.

For Cc1ncc2c(n1)CN(C(=O)Nc1nc(-c3ccc(F)s3)ccc1N)C2 [Compound 2], the “Myeloid % control @ 10 uM dose” value [1] was 87%, the IC50 (HDAC2) was 1000 to 1500 nM and the “Projected free brain @ 10 mpk” value ([2]; mice) was 0.438 µM. The “Brain Cmax @ 10 mpk” value ([2]; mice) was 760 ng/g, the half-life [2, 3] was 0.643 h and the half-life [2, 4] was 1.25 h. For the same compound, the clearance ([2]; mice, 1 mg/kg IV) was 67.7 mL/min/kg.
